From patent US20230339939A1 (Bayer Aktiengesellschaft, priority 2020, published 2023) come the findings set out here.

For one experiment, the target named is CSNK1A1 (Homo sapiens (Human), UniProt P48729). Nature of the experiment: CSNK1A1 Assay 2 (ADP-Glo, 1 μM ATP, substrate biotin-Ahx-KRRRAL-pS-VASLPGL). Type of experiment: biochemical. The settings on record: median, read-out: CSNK1A1 Assay 2 IC50 [mol/l] (median). As to the method: CSNK1A1-inhibitory activity of compounds of the present invention in presence of 1 μM adenosine-tri-phosphate (ATP) was quantified employing the CSNK1A1 assay as described in the following paragraphs. In essence, the enzyme activity is measured by quantification of the adenosine-di-phosphate (ADP), which is generated as a co-product of the enzyme reaction, via the “ADP-Glo™ Kinase Assay” kit from the company Promega. This detection system works as follows: In a first step the ATP not consumed in the kinase reaction is quantitatively converted to cAMP employing an adenylate cyclase (“ADP-Glo-reagent”), then the adenylate cyclase is stopped and the ADP generated in the kinase reaction converted to ATP which generates in a luciferase-based reaction a glow-luminescence signal (“Kinase Detection Reagent”).
Chain of CSNK1A1 (P48729 whole entry): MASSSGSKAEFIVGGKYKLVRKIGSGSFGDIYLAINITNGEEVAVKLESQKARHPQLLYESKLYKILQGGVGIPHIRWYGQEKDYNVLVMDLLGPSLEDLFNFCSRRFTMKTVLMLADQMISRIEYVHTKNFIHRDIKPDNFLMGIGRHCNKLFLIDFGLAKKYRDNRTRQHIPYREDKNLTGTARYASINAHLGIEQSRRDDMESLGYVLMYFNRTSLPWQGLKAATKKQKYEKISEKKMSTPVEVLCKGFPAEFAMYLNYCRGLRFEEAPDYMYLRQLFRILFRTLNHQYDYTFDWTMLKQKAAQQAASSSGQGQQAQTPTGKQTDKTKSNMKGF
Recombinant fusion protein of N-terminal Glutathion-S-Transferase (GST) and full-length human CSNK1A1, expressed by baculovirus infected insect cells and purified via Glutathion affinity chromatography, was purchased from Life Technologies (product no. PV4174) and used as enzyme. As substrate for the kinase reaction the biotinylated peptide biotin-Ahx-KRRRAL-pS-VASLPGL (C-terminus in amide form) was used which can be purchased e.g. from the company Biosyntan (Berlin-Buch, Germany).
For the assay 50 nl of a 100 fold concentrated solution of the test compound in DMSO was pipetted into a white 1536-well microtiter plate (Greiner Bio-One, Frickenhausen, Germany), 2 μL of a solution of CSNK1A1 in aqueous assay buffer [50 mM HEPES pH 7.5, 10% (v/v) glycerol, 10 mM MgCl2, 50 mM NaCl, 1 mM dithiothreitol, 0.01% (w/v) bovine serum albumin, 0.01% (v/v) Triton X-100] were added and the mixture was incubated for 15 min at 22° C. to allow pre-binding of the test compounds to the enzyme before the start of the kinase reaction. […] The concentration of CSNK1A1 was adjusted depending of the activity of the enzyme lot and was chosen appropriate to have the assay in the linear range, a typical concentrations are about 0.0375 ng/μL. The reaction was stopped by the addition of 2.5 μL of “ADP-Glo-reagent” (1:1.5 fold diluted with water) and the resulting mixture was incubated at 22° C. for 1 h to convert the ATP not consumed in the kinase reaction completely […]. Subsequently 2.5 μL of the “kinase detection reagent” (1.2 fold more concentrated than recommended by the producer) were added, the resulting mixture was incubated at 22° C. for 1 h and then the luminescence measured with a suitable measurement instrument (e.g. Viewlux™ from Perkin-Elmer). The amount of emitted light was taken as a measure for the amount of ADP generated and thereby for the activity of the CSNK1A1.

For the next experiment, the target named is CSNK1D (Homo sapiens (Human), UniProt P48730). Nature of the experiment: CSNK1D Assay (ADP-Glo, 1 μM ATP). Type of experiment: biochemical. The settings on record: median, read-out: CSNK1D IC50 [mol/l] (median). As to the method:
CSNK1D-inhibitory activity of compounds of the present invention in presence of 1 μM adenosine-tri-phosphate (ATP) was quantified employing the CSNK1 D assay as described in the following paragraphs. In essence, the enzyme activity is measured by quantification of the adenosine-di-phosphate (ADP), which is generated as a co-product of the enzyme reaction, via the “ADP-Glo™ Kinase Assay” kit from the company Promega. This detection system works as follows: In a first step the ATP not consumed in the kinase reaction is quantitatively converted to cAMP employing an adenylate cyclase (“ADP-Glo-reagent”), then the adenylate cyclase is stopped and the ADP generated in the kinase reaction converted to ATP which generates in a luciferase-based reaction a glow-luminescence signal (“Kinase Detection Reagent”).
Recombinant fusion protein of N-terminal Glutathion-S-Transferase (GST) and full-length human CSNK1D, expressed by baculovirus infected insect cells and purified via Glutathion affinity chromatography, was purchased from Life Technologies (product no. PV3665) and used as enzyme. As substrate for the kinase reaction the biotinylated peptide Btn-Ahx-[…] (C-terminus in amide form) was used which can be purchased e.g. from the company Biosyntan (Berlin-Buch, Germany).
For the assay 50 nl of a 100 fold concentrated solution of the test compound in DMSO was pipetted into a white 1536-well microtiter plate (Greiner Bio-One, Frickenhausen, Germany), 2 μL of a solution of CSNK1D in aqueous assay buffer [50 mM HEPES pH 7.5, 10% (v/v) glycerol, 10 mM MgCl2, 50 mM NaCl, 1 mM dithiothreitol, 0.01% (w/v) bovine serum albumin, 0.01% (v/v) Triton X-100] were added and the mixture was incubated for 15 min at 22° C. to allow pre-binding of the test compounds to the enzyme before the start of the kinase reaction. […] The concentration of CSNK1D was adjusted depending of the activity of the enzyme lot and was chosen appropriate to have the assay in the linear range, a typical concentration is about 0.5 ng/μL. The reaction was stopped by the addition of 2.5 μL of “ADP-Glo-reagent” (1:1.5 fold diluted with water) and the resulting mixture was incubated at 22° C. for 1 h to convert the ATP not consumed in the kinase reaction completely […]. Subsequently 2.5 μL of the “kinase detection reagent” (1.2 fold more concentrated than recommended by the producer) were added, the resulting mixture was incubated at 22° C. for 1 h and then the luminescence measured with a suitable measurement instrument (e.g. Viewlux™ from Perkin-Elmer). The amount of emitted light was taken as a measure for the amount of ADP generated and thereby for the activity of the CSNK1D.
A general note: In ADP-Glo the light output rises with the ADP produced.

Chain of CSNK1D (P48730 whole entry): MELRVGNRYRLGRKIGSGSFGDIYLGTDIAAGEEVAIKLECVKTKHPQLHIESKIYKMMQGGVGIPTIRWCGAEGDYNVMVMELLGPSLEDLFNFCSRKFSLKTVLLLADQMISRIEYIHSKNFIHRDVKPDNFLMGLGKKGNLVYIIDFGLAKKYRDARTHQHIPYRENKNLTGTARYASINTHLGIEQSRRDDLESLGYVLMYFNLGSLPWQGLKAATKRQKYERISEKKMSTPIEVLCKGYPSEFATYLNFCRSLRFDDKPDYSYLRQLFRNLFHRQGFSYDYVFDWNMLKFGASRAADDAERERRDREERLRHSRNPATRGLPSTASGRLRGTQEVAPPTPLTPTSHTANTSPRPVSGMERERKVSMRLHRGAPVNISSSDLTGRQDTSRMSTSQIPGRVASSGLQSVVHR

Turning to `CC(C(=O)Nc1cc(-c2[nH]c3ccc(F)nc3c2-c2ccccn2)ccn1)c1ccc(F)cc1` (racemic) [Example 1, 2-(4-fluorophenyl)-N-{4-[5-fluoro-3-(pyridin-2-yl)-1H-pyrrolo[3,2-b]pyridin-2-yl]pyridin-2-yl}propanamide], the IC50 at CSNK1A1 is 1.66 nM; on CSNK1D, 4.58 nM.

For `CC(C(=O)Nc1cc(-c2[nH]c3cccnc3c2-c2ccccn2)ccn1)c1ccc(F)cc1` (racemic) [Example 6, 2-(4-fluorophenyl)-N-{4-[3-(pyridin-2-yl)-1H-pyrrolo[3,2-b]pyridin-2-yl]pyridin-2-yl}propanamide], the IC50 on CSNK1A1 came to 1.73 nM; on CSNK1D, 3.37 nM.

On to `CC(C(=O)Nc1cc(-c2[nH]c3cccnc3c2-c2ccccc2)ccn1)c1ccc(F)cc1` (racemic) [Example 11, 2-(4-fluorophenyl)-N-[4-(3-phenyl-1H-pyrrolo[3,2-b]pyridin-2-yl)pyridin-2-yl]propanamide], for which the IC50 was 6.11 nM at CSNK1A1 and 7.02 nM at CSNK1D.

For `Cc1cc2[nH]c(-c3ccnc(NC(=O)C(C)c4ccc(F)cc4)c3)c(-c3ccccn3)c2nc1F` (racemic) [Example 28, N-{4-[5-fluoro-6-methyl-3-(pyridin-2-yl)-1H-pyrrolo[3,2-b]pyridin-2-yl]pyridin-2-yl}-2-(4-fluorophenyl)propanamide], the values for the IC50 on CSNK1A1 and at CSNK1D were 4.61 nM and 11.3 nM, respectively.

Regarding `COCC(C(=O)Nc1cc(-c2[nH]c3cccnc3c2-c2ccccn2)ccn1)c1ccc(F)cc1` (racemic) [Example 43, (2RS)-2-(4-fluorophenyl)-3-methoxy-N-(4-(3-(pyridin-2-yl)-1H-pyrrolo[3,2-b]pyridin-2-yl)pyridin-2-yl)propanamide], the figures for the IC50 at CSNK1A1 and at CSNK1D were 3.51 nM and 6.46 nM, respectively.

`COCCC(C(=O)Nc1cc(-c2[nH]c3cccnc3c2-c2ccccn2)ccn1)c1ccc(F)cc1` (racemic) [Example 44]: the IC50 was 4.97 nM on CSNK1A1 and 9.84 nM at CSNK1D.

For the compound `COCC(C(=O)Nc1cc(-c2[nH]c3cc(F)cnc3c2-c2ccccn2)ccn1)c1ccc(F)cc1` (racemic) [Example 45, (2RS)-2-(4-fluorophenyl)-N-[4-[6-fluoro-3-(2-pyridyl)-1H-pyrrolo[3,2-b]pyridin-2-yl]-2-pyridyl]-3-methoxy-propanamide], the IC50 came out at 4.83 nM at CSNK1A1 and 12 nM on CSNK1D.

`CC(C(=O)Nc1cc(-c2[nH]c3ccc(F)nc3c2-c2ccccn2)ccn1)c1ccc(F)cc1` (single isomer, unassigned; (+)) [Example 3, (+)-2-(4-fluorophenyl)-N-{4-[5-fluoro-3-(pyridin-2-yl)-1H-pyrrolo[3,2-b]pyridin-2-yl]pyridin-2-yl}propanamide]: the IC50 came to 1 nM at CSNK1A1 and 2.87 nM on CSNK1D.

Take `CC(C(=O)Nc1cc(-c2[nH]c3cccnc3c2-c2ccccn2)ccn1)c1ccc(F)cc1` (single isomer, unassigned; (+)) [Example 7, (+)-2-(4-fluorophenyl)-N-{4-[3-(pyridin-2-yl)-1H-pyrrolo[3,2-b]pyridin-2-yl]pyridin-2-yl}propanamide]: the results for the IC50 at CSNK1A1 and at CSNK1D were 0.949 nM and 2.1 nM, respectively.

As for `CC(C)C(C(=O)Nc1cc(-c2[nH]c3ccc(F)nc3c2-c2ccccn2)ccn1)c1ccc(F)cc1` (single isomer, unassigned; (+)) [Example 26, (+)-2-(4-fluorophenyl)-N-{4-[5-fluoro-3-(pyridin-2-yl)-1H-pyrrolo[3,2-b]pyridin-2-yl]pyridin-2-yl}-3-methylbutanamide], the IC50 on CSNK1A1 was 3.5 nM; at CSNK1D it was 7.62 nM.

For the compound `Cc1cc2[nH]c(-c3ccnc(NC(=O)C(C)c4ccc(F)cc4)c3)c(-c3ccccn3)c2nc1F` (single isomer, unassigned; (+)) [Example 29, (+)-N-{4-[5-fluoro-6-methyl-3-(pyridin-2-yl)-1H-pyrrolo[3,2-b]pyridin-2-yl]pyridin-2-yl}-2-(4-fluorophenyl)propanamide], the values for the IC50 on CSNK1A1 and on CSNK1D were 13.8 nM and 30.2 nM, respectively.

For the compound `CC(C(=O)Nc1cc(-c2[nH]c3ccc(F)nc3c2-c2ccccn2)ccn1)c1ccc(F)cc1` (single isomer, unassigned; (-)) [Example 2, (−)-2-(4-fluorophenyl)-N-{4-[5-fluoro-3-(pyridin-2-yl)-1H-pyrrolo[3,2-b]pyridin-2-yl]pyridin-2-yl}propanamide], the IC50 on CSNK1A1 was 10.9 nM; on CSNK1D it was 32.2 nM.

For `CC(C(=O)Nc1cc(-c2[nH]c3cccnc3c2-c2ccccn2)ccn1)c1ccc(F)cc1` (single isomer, unassigned; (-)) [Example 8, (−)-2-(4-fluorophenyl)-N-{4-[3-(pyridin-2-yl)-1H-pyrrolo[3,2-b]pyridin-2-yl]pyridin-2-yl}propanamide], the IC50 at CSNK1A1 amounted to 7.53 nM; at CSNK1D, 14.6 nM.

As to `CC(C)C(C(=O)Nc1cc(-c2[nH]c3ccc(F)nc3c2-c2ccccn2)ccn1)c1ccc(F)cc1` (single isomer, unassigned; (-)) [Example 25, (−)-2-(4-fluorophenyl)-N-{4-[5-fluoro-3-(pyridin-2-yl)-1H-pyrrolo[3,2-b]pyridin-2-yl]pyridin-2-yl}-3-methylbutanamide], the IC50 on CSNK1A1 came to 23.9 nM; on CSNK1D, 56.3 nM.

For `Cc1cc2[nH]c(-c3ccnc(NC(=O)C(C)c4ccc(F)cc4)c3)c(-c3ccccn3)c2nc1F` (single isomer, unassigned; (-)) [Example 30, (−)-N-{4-[5-fluoro-6-methyl-3-(pyridin-2-yl)-1H-pyrrolo[3,2-b]pyridin-2-yl]pyridin-2-yl}-2-(4-fluorophenyl)propanamide], the IC50 on CSNK1A1 was determined as 1.69 nM; on CSNK1D it was 4.65 nM.

With `O=C(Cc1ccc(F)cc1)Nc1cc(-c2[nH]c3ccc(F)nc3c2-c2ccccn2)ccn1` [Example 4, 2-(4-fluorophenyl)-N-{4-[5-fluoro-3-(pyridin-2-yl)-1H-pyrrolo[3,2-b]pyridin-2-yl]pyridin-2-yl}acetamide], the IC50 at CSNK1A1 worked out at 0.739 nM; on CSNK1D it was 2.33 nM.

For `O=C(Cc1ccc(F)cc1)Nc1cc(-c2[nH]c3cccnc3c2-c2ccccn2)ccn1` [Example 5, 2-(4-fluorophenyl)-N-{4-[3-(pyridin-2-yl)-1H-pyrrolo[3,2-b]pyridin-2-yl]pyridin-2-yl}acetamide], the IC50 was 1.06 nM on CSNK1A1 and 2.68 nM at CSNK1D.
